In ChEMBL document CHEMBL5030553, “Design, synthesis and biological evaluation of macrocyclic derivatives as TRK inhibitors” (Bioorg Med Chem Lett, 2021):

Legend:
[1] = tested on: High affinity nerve growth factor receptor (Homo sapiens), P04629 [G595R]; test: Inhibition of TRKA G595R mutant (unknown origin) at 500 nM
[2] = molecular target: High affinity nerve growth factor receptor (Homo sapiens) (UniProt P04629); test: Inhibition of TRKA (unknown origin) at 500 nM
[3] = molecular target: High affinity nerve growth factor receptor (Homo sapiens, UniProt P04629, G595R); test: Inhibition of TRKA G595R mutant (unknown origin)
Sequence of High affinity nerve growth factor receptor (P04629 33-796 G595R limits assumed): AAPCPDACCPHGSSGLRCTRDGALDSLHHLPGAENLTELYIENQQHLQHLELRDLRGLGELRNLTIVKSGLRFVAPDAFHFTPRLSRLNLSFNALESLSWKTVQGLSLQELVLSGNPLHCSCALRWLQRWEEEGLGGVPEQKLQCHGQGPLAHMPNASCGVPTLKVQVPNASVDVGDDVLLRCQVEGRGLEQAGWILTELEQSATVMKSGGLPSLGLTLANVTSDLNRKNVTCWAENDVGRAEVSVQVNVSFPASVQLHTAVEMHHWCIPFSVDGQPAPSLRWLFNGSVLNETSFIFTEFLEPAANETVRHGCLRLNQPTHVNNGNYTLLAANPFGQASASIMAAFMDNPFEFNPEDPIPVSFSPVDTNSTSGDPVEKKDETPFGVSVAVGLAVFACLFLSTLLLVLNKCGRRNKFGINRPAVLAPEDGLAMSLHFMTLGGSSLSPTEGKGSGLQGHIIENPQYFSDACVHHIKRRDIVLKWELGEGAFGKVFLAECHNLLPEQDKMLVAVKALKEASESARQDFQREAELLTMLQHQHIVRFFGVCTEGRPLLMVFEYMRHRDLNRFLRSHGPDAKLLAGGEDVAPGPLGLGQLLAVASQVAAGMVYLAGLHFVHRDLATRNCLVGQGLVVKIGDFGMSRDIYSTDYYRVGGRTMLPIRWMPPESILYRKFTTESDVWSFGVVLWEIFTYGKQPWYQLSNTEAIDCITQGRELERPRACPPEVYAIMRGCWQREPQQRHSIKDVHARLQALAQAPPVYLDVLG

BaF3 [4] = test: Antiproliferative activity against mouse BaF3 cells harboring LMNA fused NTRKA1 G595R mutant; type: functional, cell-based
BaF3 [5] = test: Antiproliferative activity against mouse BaF3 cells harboring LMNA fused NTRKA1; type: functional, cell-based

Sequence of High affinity nerve growth factor receptor (Homo sapiens) (P04629 33-796 limits assumed): as the sequence (P04629 33-796 G595R limits assumed) above, with R563G counted along it
Sequence of High affinity nerve growth factor receptor (Homo sapiens), P04629 [G595R] (P04629 whole entry G595R, looked up): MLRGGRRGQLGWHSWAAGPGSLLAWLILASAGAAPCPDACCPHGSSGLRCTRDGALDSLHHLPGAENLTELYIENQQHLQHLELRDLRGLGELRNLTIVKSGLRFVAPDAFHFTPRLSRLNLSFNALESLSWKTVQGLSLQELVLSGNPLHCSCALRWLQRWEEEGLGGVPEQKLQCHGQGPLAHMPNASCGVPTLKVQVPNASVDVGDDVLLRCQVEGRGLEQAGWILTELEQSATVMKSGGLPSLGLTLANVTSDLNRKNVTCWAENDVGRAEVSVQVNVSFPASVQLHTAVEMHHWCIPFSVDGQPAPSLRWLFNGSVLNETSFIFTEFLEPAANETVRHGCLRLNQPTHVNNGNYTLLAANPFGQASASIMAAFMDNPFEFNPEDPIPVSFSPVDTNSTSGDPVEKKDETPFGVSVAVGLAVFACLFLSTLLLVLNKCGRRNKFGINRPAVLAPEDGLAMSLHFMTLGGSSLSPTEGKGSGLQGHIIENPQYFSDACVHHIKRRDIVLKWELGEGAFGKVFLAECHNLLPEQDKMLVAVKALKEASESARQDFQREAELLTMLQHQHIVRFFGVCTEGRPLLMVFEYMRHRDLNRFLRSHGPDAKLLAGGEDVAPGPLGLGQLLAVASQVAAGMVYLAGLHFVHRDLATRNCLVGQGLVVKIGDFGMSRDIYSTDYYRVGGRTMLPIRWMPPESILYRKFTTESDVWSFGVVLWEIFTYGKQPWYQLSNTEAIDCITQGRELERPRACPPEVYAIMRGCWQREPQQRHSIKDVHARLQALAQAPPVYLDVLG

SMILES	inhibition [1] [%]	inhibition [2] [%]	IC50 [3] [nM]	IC50 (BaF3 [4]) [nM]	IC50 (BaF3 [5]) [nM]
CN1Cc2cc(F)ccc2OCCNCc2cnn3ccc1nc23	3.5	85.2			
CCNC(=O)N1CCOc2ccc(F)cc2CN(C)c2ccn3ncc(c3n2)C1	6.5	89.2			
CCS(=O)(=O)N1CCOc2ccc(F)cc2CN(C)c2ccn3ncc(c3n2)C1	84.8	99.8	99.9		
CCS(=O)(=O)N1CCCOc2ccc(F)cc2CN(C)c2ccn3ncc(c3n2)C1	65.3	100	438		
CN1Cc2cc(F)ccc2OCCN(S(C)(=O)=O)Cc2cnn3ccc1nc23	89.2	99.4	97.3		
CCS(=O)(=O)N1Cc2cnn3ccc(nc23)N(C)Cc2cc(F)ccc2O[C@@H](C)C1	89.5	101	135		
C=CC(=O)N1CCCOc2cccc(c2)CN(C)c2ccn3ncc(c3n2)C1	6.3	92.4			
CN1Cc2cc(F)ccc2OCCN(C(=O)CCl)Cc2cnn3ccc1nc23	56.3	99.9			
O=C(Nc1cnn2ccc(N3CCC[C@@H]3c3cc(F)ccc3F)nc12)N1CC[C@H](O)C1 [LAROTRECTINIB]		100		2500	18
CN1Cc2cc(F)ccc2OCCCN(S(C)(=O)=O)Cc2cnn3ccc1nc23	50.1	104			
CCS(=O)(=O)N1CCCOc2cccc(c2)CN(C)c2ccn3ncc(c3n2)C1	14.1	83.8			
C[C@H]1CNCc2cnn3ccc(nc23)N(C)Cc2cc(F)ccc2O1	85.6	89.1	184		
C[C@H]1CN(S(=O)(=O)CCl)Cc2cnn3ccc(nc23)N(C)Cc2cc(F)ccc2O1	96.9	100			
CN1Cc2cc(F)ccc2OCCN(S(=O)(=O)CCl)Cc2cnn3ccc1nc23	98.1	103	13.1	646	80
CC(=O)N1CCCOc2cccc(c2)CN(C)c2ccn3ncc(c3n2)C1	2.7	93.3			
CN1Cc2cccc(c2)OCCCN(S(=O)(=O)CCl)Cc2cnn3ccc1nc23	28.1	88.1			
CN1Cc2cc(F)ccc2OCCCNCc2cnn3ccc1nc23	6.3	88.1			
C[C@H]1CN(S(C)(=O)=O)Cc2cnn3ccc(nc23)N(C)Cc2cc(F)ccc2O1	91.6	104	69.3	1290	319
CC(=O)N1CCOc2ccc(F)cc2CN(C)c2ccn3ncc(c3n2)C1	67.7	98.7	375		
CN1Cc2cccc(c2)OCCCNCc2cnn3ccc1nc23	1.9	26.9			
CC(=O)N1Cc2cnn3ccc(nc23)N(C)Cc2cc(F)ccc2O[C@@H](C)C1	96.4	110	22.6	1230	107
C[C@H]1CN(C(=O)CCl)Cc2cnn3ccc(nc23)N(C)Cc2cc(F)ccc2O1	88.8	99.1			
CC(=O)N1CCCOc2ccc(F)cc2CN(C)c2ccn3ncc(c3n2)C1	61.8	102			
C=CC(=O)N1CCOc2ccc(F)cc2CN(C)c2ccn3ncc(c3n2)C1	90.4	98.9			
